Experimental data taken from patent US11180462B2, “Microbiocidal oxadiazole derivatives” (SYNGENTA PARTICIPATIONS AG, priority 2015, dated 2021).

Legend:
Phakopsora Pachyrhizi = experiment: Fungicidal activity against Phakopsora pachyrhizi / soybean / leaf disc preventative (Asian soybean rust); format: in vivo; conditions: foliar, 200 ppm in the applied formulation, soybean leaf disks, compared to untreated control leaf disks, read-out: disease control
Method in brief: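 Preventative soybean leaf-disc test: discs on water agar sprayed with diluted formulated compound, inoculated one day later with spores on the lower surface. Held 24–36 h dark at 20°C, 75% rh, then 12 h light/day; percent disease control versus untreated discs scored 12–14 days after application.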

[1] = test system: Puccinia recondita f. Sp. Tritici; experiment: Fungicidal activity against Puccinia recondita f. sp. tritici / wheat / leaf disc preventative (brown rust); format: in vivo; conditions: foliar, 200 ppm in the applied formulation, wheat leaf segments, preventative, compared to untreated control leaf disks, read-out: disease control
Method in brief: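 Compound application precedes infection: segments of wheat cv. Kanzler, sprayed at 200 ppm, are inoculated with a spore suspension after 1 day. Incubation is at 19° C. with 75% relative humidity and 12 h light/12 h darkness, and control versus untreated leaves is rated 7 to 9 days post-application.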

[2] = test system: Glomerella lagenarium (Colletotrichum lagenarium); experiment: Fungicidal activity against Glomerella lagenarium (Colletotrichum lagenarium) liquid culture / cucumber / preventative (anthracnose); format: cell-based; conditions: Colletotrichum orbiculare; 20 ppm in the applied formulation; liquid culture (PDB), growth inhibition measured photometrically after 3 to 4 days; compared to untreated control; read-out: disease control
Method in brief: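 Photometric read-out of fungal growth after 2–7 days, expressed as percent antifungal activity versus untreated check. Cryo-stored conidia in PDB; compound at 20 ppm; dark, 24 °C, 96% RH.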

[3] = test system: Puccinia recondita f. Sp. Tritici; experiment: Fungicidal activity against Puccinia recondita f. sp. tritici / wheat / leaf disc curative (brown rust); format: in vivo; conditions: foliar, 24 h, 200 ppm in the applied formulation, wheat leaf segments, curative (applied 1 day after inoculation), compared to untreated control leaf disks, read-out: disease control
Method in brief: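 Wheat cv. Kanzler leaf segments on agar, inoculated with rust spore suspension, kept dark at 19° C and 75% RH; formulated compound sprayed 1 day post-inoculation. Incubated 19° C, 75% RH, 12 h light/12 h dark; percent disease control vs untreated scored 6 to 8 days after application.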

CCON(Cc1ccc(-c2noc(C(F)(F)F)n2)cc1)C(=O)C(C)CC (stereo not shown) [Compound 1.622, N-ethoxy-2-methyl-N-[[4-[5-(trifluoromethyl)-1,2,4-oxadiazol-3-yl]phenyl]methyl]-butanamide]
≥ 80%: pest or weed control at 200 ppm (Phakopsora Pachyrhizi) | pest or weed control at 200 ppm [1] | inhibition of growth at 20 ppm [2] | pest or weed control at 200 ppm [3]

CCON(Cc1ccc(-c2noc(C(F)(F)F)n2)cc1)C(=O)C1(C)COC1 [Compound 1.623, N-ethoxy-3-methyl-N-[[4-[5-(trifluoromethyl)-1,2,4-oxadiazol-3-yl]phenyl]methyl]-oxetane-3-carboxamide]
≥ 80%: pest or weed control at 200 ppm (Phakopsora Pachyrhizi) | pest or weed control at 200 ppm [1] | inhibition of growth at 20 ppm [2] | pest or weed control at 200 ppm [3]

CCON(Cc1ccc(-c2noc(C(F)(F)F)n2)cc1)C(=O)C(CC)COC (stereo not shown) [Compound 1.624, N-ethoxy-2-(methoxymethyl)-N-[[4-[5-(trifluoromethyl)-1,2,4-oxadiazol-3-yl]phenyl]methyl]-butanamide]
≥ 80%: pest or weed control at 200 ppm (Phakopsora Pachyrhizi) | pest or weed control at 200 ppm [1] | inhibition of growth at 20 ppm [2] | pest or weed control at 200 ppm [3]

CCON(Cc1ccc(-c2noc(C(F)(F)F)n2)cc1)C(=O)CCCOC [Compound 1.625, N-ethoxy-4-methoxy-N-[[4-[5-(trifluoromethyl)-1,2,4-oxadiazol-3-yl]phenyl]methyl]-butanamide]
≥ 80%: pest or weed control at 200 ppm (Phakopsora Pachyrhizi) | pest or weed control at 200 ppm [1] | inhibition of growth at 20 ppm [2] | pest or weed control at 200 ppm [3]

CCON(Cc1ccc(-c2noc(C(F)(F)F)n2)cc1)C(=O)C1CCCO1 (stereo not shown) [Compound 1.626, N-ethoxy-N-[[4-[5-(trifluoromethyl)-1,2,4-oxadiazol-3-yl]phenyl]methyl]-tetrahydrofuran-2-carboxamide]
≥ 80%: pest or weed control at 200 ppm (Phakopsora Pachyrhizi) | pest or weed control at 200 ppm [1] | inhibition of growth at 20 ppm [2] | pest or weed control at 200 ppm [3]

CCON(Cc1ccc(-c2noc(C(F)(F)F)n2)cc1)C(=O)C(C)OC (stereo not shown) [Compound 1.629, N-ethoxy-2-methoxy-N-[[4-[5-(trifluoromethyl)-1,2,4-oxadiazol-3-yl]phenyl]methyl]-propanamide]
≥ 80%: pest or weed control at 200 ppm (Phakopsora Pachyrhizi) | pest or weed control at 200 ppm [1] | inhibition of growth at 20 ppm [2] | pest or weed control at 200 ppm [3]

CCON(Cc1ccc(-c2noc(C(F)(F)F)n2)cc1)C(C)=O [Compound 1.631, N-ethoxy-N-[[4-[5-(trifluoromethyl)-1,2,4-oxadiazol-3-yl]phenyl]methyl]-acetamide]
≥ 80%: pest or weed control at 200 ppm (Phakopsora Pachyrhizi) | pest or weed control at 200 ppm [1] | inhibition of growth at 20 ppm [2] | pest or weed control at 200 ppm [3]

CCCN(Cc1ccc(-c2noc(C(F)(F)F)n2)cc1)C(=O)C(C)C [Compound 1.651, 2-methyl-N-propyl-N-[[4-[5-(trifluoromethyl)-1,2,4-oxadiazol-3-yl]phenyl]methyl]-propanamide]
≥ 80%: pest or weed control at 200 ppm (Phakopsora Pachyrhizi) | pest or weed control at 200 ppm [1] | inhibition of growth at 20 ppm [2] | pest or weed control at 200 ppm [3]

CCCN(Cc1ccc(-c2noc(C(F)(F)F)n2)cc1)C(=O)C1CC1(F)F (stereo not shown) [Compound 1.652, 2,2-difluoro-N-propyl-N-[[4-[5-(trifluoromethyl)-1,2,4-oxadiazol-3-yl]phenyl]methyl]-cyclopropane-carboxamide]
≥ 80%: pest or weed control at 200 ppm (Phakopsora Pachyrhizi) | pest or weed control at 200 ppm [1] | inhibition of growth at 20 ppm [2] | pest or weed control at 200 ppm [3]

CCCN(Cc1ccc(-c2noc(C(F)(F)F)n2)cc1)C(=O)C1CCOC1 (stereo not shown) [Compound 1.654, N-propyl-N-[[4-[5-(trifluoromethyl)-1,2,4-oxadiazol-3-yl]phenyl]methyl]-tetrahydrofuran-3-carboxamide]
≥ 80%: pest or weed control at 200 ppm (Phakopsora Pachyrhizi) | pest or weed control at 200 ppm [1] | inhibition of growth at 20 ppm [2] | pest or weed control at 200 ppm [3]
